The text below walks through data of PMC9865397, “Colon-Targeted Trans-Cinnamic Acid Ameliorates Rat Colitis by Activating GPR109A” (Pharmaceutics, 2022).

One series has as its system DNBS-induced rat colitis. The series is described as follows: DNBS-induced rat colitis, anti-colitic effects. Format: in vivo. Conditions: for colonic damage (CDS) / CINC-3 level in inflamed distal colon / MPO activity in inflamed distal colon / iNOS and COX-2 protein levels in inflamed distal colon: oral once per day for 6 days, tCA 30 mg/kg; for colonic damage (CDS): tCA-GA equivalent to 15 (L) and 30 (H) mg/kg tCA, SSZ 30 mg/kg; for CINC-3 level in inflamed distal colon / MPO activity in inflamed distal colon / iNOS and COX-2 protein levels in inflamed distal colon: tCA-GA L and H. The method, then:
For an animal experiment to evaluate the anti-colitic effects of drugs, six groups (n = 5 rats per group) were made and treated via oral gavage as follows: normal group, 1.0 mL of phosphate buffered saline (pH 7.4, PBS); colitis group, 1.0 mL of PBS; tCA-treated colitis group, tCA (30 mg/kg) in 1.0 mL of PBS; tCA-GA-treated colitis group (L), tCA-GA (28 mg/kg, equivalent to 15 mg/kg of tCA) in 1.0 mL of PBS; tCA-GA-treated colitis group (H), tCA-GA (56 mg/kg, equivalent to 30 mg/kg of tCA) in 1.0 mL of PBS; SSZ-treated colitis group, SSZ (30 mg/kg) in 1.0 mL of PBS. For the other experiment to evaluate GPR109A-dependent anti-colitic effects of tCA-GA, five groups (n = 5 rats per group) were made and treated via oral gavage as follows: normal group, 1.0 mL of PBS; colitis group, 1.0 mL of PBS; tCA-GA-treated colitis group, tCA-GA (28 mg/kg) in 1.0 mL of PBS; tCA-GA + MPZ-treated colitis group, tCA-GA (28 mg/kg) and MPZ (2 mg/kg) in 1.0 mL of PBS; MPZ-treated colitis group, MPZ (2 mg/kg) in 1.0 mL of PBS.
DNBS-mediated colitis was induced in rats as described previously. Additionally, 3 days after the induction of colitis, the drugs were administered once per day for 6 days as in Section 2.10. The rats were killed to obtain the inflamed distal colon. The colonic damage score (CDS), assessing pathological state in colon tissue and neighbor organs ascribed to DNBS-induced inflammation, was calculated according to the criteria set previously. For histological evaluation, fixed colon tissues were embedded in paraffin, sections with a thickness of 4 μm were cut and stained with hematoxylin and eosin (H&E). The sections were examined under a light microscope (Olympus BX43, Olympus Co., Tokyo, Japan). Myeloperoxidase (MPO) activity was measured as described previously.
(§1) Changes in levels of the proteins were monitored using Western blotting. Cell lysates and tissue lysates of the distal colon were prepared for Western blot analysis as described previously. To determine the protein concentrations in the lysates, bicinchoninic acid reagent (Thermo Fisher Scientific, Waltham, MA, USA) was used according to the manufacturer’s instructions. SDS-PAGE (10 or 7.5% gels) was used to separate and analyze the proteins in the sample lysates. Anti-cyclooxygenase (COX-2, sc-365374, Santa Cruz Biotechnology, Dallas, TX, USA) and anti-inducible nitric oxide synthase (iNOS) antibodies (sc-7271, Santa Cruz Biotechnology) were used to detect COX-2 and iNOS proteins, respectively. Horseradish peroxidase-conjugated secondary antibodies (Santa Cruz Biotechnology) were used to label the primary antibodies. The protein bands in membranes were visualized using the SuperSignal chemiluminescence substrate (Thermo Fisher Scientific, Waltham, MA, USA). As a loading control, α-tubulin was detected using an anti-α-tubulin antibody (Santa Cruz Biotechnology). Intensity of Western blots was quantified using Image Lab software (version 5.2 build 14, Bio-Rad, Hercules, CA, USA). The mean values (n = 3 for cell experiments, n = 5 for animal experiments) were shown under the blots in figures. Original images of Western blots are shown in Supplementary Data S1.
The distal colon samples (0.1 g) obtained from rats were minced in a potassium phosphate buffer (pH 6.0, 1.0 mL), homogenized using a T10 basic/IKA homogenizer (ULTRA-TURRAX®, Staufen im Breisgau, Germany), and centrifuged at 10,000× g for 10 min at 4 °C. The levels of CINC-3 and IL-10 were determined in the samples using ELISA kits, according to the manufacturer’s instructions.

The next series deals with RAW 264.7 cells. The series is described as follows: LPS-stimulated RAW 264.7 cells: IL-10, COX-2 and iNOS levels. It is filed as cell-based, murine. On the procedure:
as §1

The nature of series [1]: Distribution coefficient (log D6.8), n-octanol/buffer pH 6.8. It is filed as physicochemical. Conditions: n-octanol/buffer (pH 6.8) system; read-out: distribution coefficient (DC, log D6.8). The method, then: Distribution coefficients (log D6.8) of tCA, tCA-AA, and tCA-GA were measured as described previously. The concentrations of drugs were determined using a UV-Vis spectrophotometer (Shimadzu, Tokyo, Japan) at 277 nm, and log D6.8 was calculated using the equation reported previously. The chemical stabilities of tCA-GA and tCA-AA were analyzed in HCl-NaCl buffer (pH 1.2) and pH 6.8 isotonic phosphate buffer, representing the physiological pH of the stomach and small intestine, respectively. Each drug (0.1 mM) dissolved in the buffers was incubated for at least 12 h, and change in the concentrations of the drugs was monitored using HPLC analysis.

The subject of the next series is Caco-2 cell monolayer. Put plainly: Caco-2 cell monolayer permeability assay. Conditions: 1.2 mM on apical side, up to 24 h, compared with tCA. It is filed as in vitro ADME, Human. On the procedure:
Caco-2 cells were seeded at 1 × 10^5 cells per insert in Transwell inserts with a pore size of 0.4 μm (SPL Inc., Houston, TX, USA). DMEM, containing 10% FBS and 1% penicillin/streptomycin, was added to the basolateral (well) (1 mL) and apical (insert) compartments (0.2 mL). The cells were grown until the trans-epithelial electrical resistance value (EMD Millipore, Billerica, MA, USA) of the cell monolayer reached 2000 Ω cm^2. After removing the culture medium, tCA and its derivatives (1.2 mM) dissolved in DMEM (0.2 mL) without phenol red and were placed on the apical side of the cell monolayer. At appropriate time intervals, the concentrations of the drugs on the basolateral side filled with DMEM (1.0 mL) were determined using HPLC.
On the technique in general: Passage across Caco-2 layers is used to estimate intestinal permeability.

The nature of series [2]: Chemical stability in pH 1.2 and pH 6.8 buffers. Format: physicochemical. Conditions: incubation for up to 10 h. On the procedure:
Distribution coefficients (log D6.8) of tCA, tCA-AA, and tCA-GA were measured as described previously. The concentrations of drugs were determined using a UV-Vis spectrophotometer (Shimadzu, Tokyo, Japan) at 277 nm, and log D6.8 was calculated using the equation reported previously. The chemical stabilities of tCA-GA and tCA-AA were analyzed in HCl-NaCl buffer (pH 1.2) and pH 6.8 isotonic phosphate buffer, representing the physiological pH of the stomach and small intestine, respectively. […]

The nature of series [3]: Stability in small intestinal contents. It is filed as in vitro ADME. The settings on record: rat small intestinal contents, up to 10 h. On the procedure: (§2) Male Sprague–Dawley (SpD) rats (250–260 g) were killed using CO2 gas. The proximal small intestinal, distal small intestinal, and cecal contents were collected separately and suspended in pH 6.8 isotonic phosphate buffer to prepare a 20% w/v suspension. tCA-GA and tCA-AA (10 mM) dissolved in pH 6.8 isotonic phosphate buffer (4 mL) were added to the suspension (4 mL) and incubated at 37 °C. To maintain anaerobic conditions, the collection of cecal contents and incubation of the conjugates in the cecal contents were conducted in a nitrogen gas bag (Sigma-Aldrich, Burlington, MA, USA). At appropriate time intervals, a portion of the mixture (0.5 mL), pipetted using a wide-orifice tip, was centrifuged in a microtube. After acidification (with 1.0 M HCl) of the supernatant (0.3 mL), EA was added and vigorously mixed. The organic layer (0.2 mL) was retrieved and evaporated. The residue, dissolved in the mobile phase (0.2 mL), was filtered and subjected to HPLC analysis. Centrifugation was conducted at 10,000× g for 10 min at 4 °C.

A short description of series [4]: Cleavage test with autoclaved cecal contents. It is filed as in vitro ADME, rat. The settings on record: up to 24 h.
Series [5] can be described thus: Conversion of conjugates to tCA in cecal contents under nitrogen. It is filed as in vitro ADME. Conditions: rat cecal contents under nitrogen. The method, then: as §2
Setting [6] is: RAW 264.7, LPS, MPZ 100 µM with tCA.
[7] abbreviates: tCA-GA 28 mg/kg oral once per day for 6 days (MPZ experiment).

SMILES strings stand for the structures.

On to `C[N+]1(C)CCCC(OC(=O)C(O)(c2ccccc2)c2ccccc2)C1` (centres unmarked) [MPZ, mepenzolate, reference compound], for which the “inflammatory state after single treatment” value in the series on DNBS-induced rat colitis (MPZ 2 mg/kg alone, oral, 6 days) was “inflammatory state similar to that induced by the DNBS control”. In the series with DNBS-induced rat colitis (MPZ 2 mg/kg co-administered with tCA-GA 28 mg/kg, oral, 6 days), the “effect of co-administered MPZ on colonic damage and inflammation” value is listed as “significantly compromised the beneficial effects of tCA-GA”. In addition, in the series on DNBS-induced rat colitis (MPZ 2 mg/kg combined with tCA-GA 28 mg/kg, oral, 6 days), the “effect of co-administered MPZ on IL-10 level in inflamed colon” value is “significantly suppressed the increase in the levels of IL-10”. Also, in the series with RAW 264.7 cells (setting [6]), the “effect of MPZ on tCA suppression of COX-2 and iNOS” value is reported as “undermined the suppressive effects of tCA”; the “effect of MPZ on tCA-increased IL-10 level” value is “significantly suppressed by MPZ”.

`O=C(O)c1cc(/N=N/c2ccc(S(=O)(=O)Nc3ccccn3)cc2)ccc1O` [SSZ, sulfasalazine, reference compound]: in the series on DNBS-induced rat colitis, the “colonic damage (CDS)” value is given as “tCA was as effective as SSZ”.

Consider `O=C(O)/C=C/c1ccccc1` [tCA, trans-cinnamic acid], for which, in the series on DNBS-induced rat colitis, the “CINC-3 level in inflamed distal colon” value is given as “lowered”; the “MPO activity in inflamed distal colon” value was “lowered MPO activity”; the “iNOS and COX-2 protein levels in inflamed distal colon” value was “lowered”; the “colonic damage (CDS)” value is reported as “ameliorated colonic damage”. Besides, in the series on RAW 264.7 cells (RAW 264.7, LPS 24 h, tCA pretreatment 1 h), the “LPS-induced COX-2 and iNOS protein levels” value is “reduced the levels of COX-2 and iNOS”. For the same molecule, the “IL-10 level in cell culture supernatant” value in the series on RAW 264.7 cells (RAW 264.7, LPS, tCA 2 mM / 5 mM) is on record as “increased the level of IL-10”.

In the case of `O=C(O)C[C@H](NC(=O)/C=C/c1ccccc1)C(=O)O` [tCA-AA, N-Cinnamoyl-L-Aspartic Acid], in series [1], the logD is -0.61. In the series on Caco-2 cell monolayer, the “permeation through the Caco-2 cell monolayer” value is reported as “substantially delayed the permeation of tCA through the cell monolayer”. The “change in concentration in buffers (pH 1.2, 6.8)” value in series [2] was “no notable changes in the concentrations”. Further, the “change in concentration in small intestinal contents” value in series [3] is listed as “no notable changes in the concentrations”. For the same molecule, the “stability in autoclaved cecal contents” value in series [4] is given as “remained intact for up to 24 h”.

Regarding `O=C(O)CC[C@H](NC(=O)/C=C/c1ccccc1)C(=O)O` [tCA-GA, N-Cinnamoyl-L-Glutamic Acid], in series [1], the logD is -0.98. The “permeation through the Caco-2 cell monolayer” value in the series with Caco-2 cell monolayer is given as “substantially delayed the permeation of tCA through the cell monolayer”. In addition, in series [2], the “change in concentration in buffers (pH 1.2, 6.8)” value is “no notable changes in the concentrations”. Also, the “change in concentration in small intestinal contents” value in series [3] is on record as “no notable changes in the concentrations”. Further, the “conversion rate to tCA” value in series [5] is on record as “higher than that of tCA-AA to tCA”. In addition, in series [4], the “stability in autoclaved cecal contents” value is given as “remained intact for up to 24 h”. Moreover, in the series on DNBS-induced rat colitis (both doses of tCA-GA, greater than tCA and SSZ), the “H&E staining, mucosal layer of distal colon” value is reported as “recovered the mucosal layer of the distal colon”. Besides, the “IL-10 level in inflamed colon” value in the series with DNBS-induced rat colitis (first experiment (Supplementary Data S6), more effective than oral tCA) is recorded as “increased the levels of IL-10 in the inflamed colon”. In the series on DNBS-induced rat colitis, the “CINC-3 level in inflamed distal colon” value was “lowered”; the “MPO activity in inflamed distal colon” value is “lowered MPO activity”; the “iNOS and COX-2 protein levels in inflamed distal colon” value is “lowered”; the “colonic damage (CDS)” value was “significantly more effective than tCA at mitigating pathological changes”. For the same molecule, in the series with DNBS-induced rat colitis (setting [7]), the “IL-10 level in inflamed colon” value is recorded as “increased the levels of IL-10 in the inflamed colon”; the “colonic damage incl. colon length shortening” value was “substantially alleviates colonic damage”; the “colonic inflammation (MPO activity, CINC-3, iNOS, COX-2 in distal colon)” value is “markedly suppressed”.
